Series [1] deals with T1, P450 1B1 (Homo sapiens, UniProt Q16678).
T1 sequence (Q16678 1-543): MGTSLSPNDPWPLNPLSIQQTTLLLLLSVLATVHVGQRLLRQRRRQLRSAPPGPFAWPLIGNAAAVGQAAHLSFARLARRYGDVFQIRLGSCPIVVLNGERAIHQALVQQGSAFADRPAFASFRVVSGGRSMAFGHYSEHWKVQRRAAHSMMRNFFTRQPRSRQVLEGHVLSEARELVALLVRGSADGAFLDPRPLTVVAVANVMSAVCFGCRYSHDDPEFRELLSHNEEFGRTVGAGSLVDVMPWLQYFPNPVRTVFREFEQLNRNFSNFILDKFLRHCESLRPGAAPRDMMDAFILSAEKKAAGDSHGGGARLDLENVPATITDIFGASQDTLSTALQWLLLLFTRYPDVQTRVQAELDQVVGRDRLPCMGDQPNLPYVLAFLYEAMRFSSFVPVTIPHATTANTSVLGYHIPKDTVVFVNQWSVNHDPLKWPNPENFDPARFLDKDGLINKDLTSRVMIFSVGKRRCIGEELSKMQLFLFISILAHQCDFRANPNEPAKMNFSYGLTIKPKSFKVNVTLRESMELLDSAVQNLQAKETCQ
The experiment in a line: Inhibition of P450 1B1-dependent 7-ethoxyresorufin O-deethylation. Particulars: for IC50: inhibition of EROD activity IC50, 15 s of incubation time (direct and direct/restore inhibitors), means and SE; for EROD kcat of P450 1B1 relative to controls / fold increase in EROD Km of P450 1B1: 1PP 66 nM; for EROD kcat of P450 1B1 relative to controls: after 6 min of incubation; for fold increase in EROD Km of P450 1B1: at 15 s; for EROD kcat of P450 1B1 relative to control, first decrease: initial stage of incubation.

Series [2] addresses T1, P450 1B1.
The target in series [3] is T2, P450 1A1 (Homo sapiens, UniProt P04798).
T2 sequence (P04798 1-512): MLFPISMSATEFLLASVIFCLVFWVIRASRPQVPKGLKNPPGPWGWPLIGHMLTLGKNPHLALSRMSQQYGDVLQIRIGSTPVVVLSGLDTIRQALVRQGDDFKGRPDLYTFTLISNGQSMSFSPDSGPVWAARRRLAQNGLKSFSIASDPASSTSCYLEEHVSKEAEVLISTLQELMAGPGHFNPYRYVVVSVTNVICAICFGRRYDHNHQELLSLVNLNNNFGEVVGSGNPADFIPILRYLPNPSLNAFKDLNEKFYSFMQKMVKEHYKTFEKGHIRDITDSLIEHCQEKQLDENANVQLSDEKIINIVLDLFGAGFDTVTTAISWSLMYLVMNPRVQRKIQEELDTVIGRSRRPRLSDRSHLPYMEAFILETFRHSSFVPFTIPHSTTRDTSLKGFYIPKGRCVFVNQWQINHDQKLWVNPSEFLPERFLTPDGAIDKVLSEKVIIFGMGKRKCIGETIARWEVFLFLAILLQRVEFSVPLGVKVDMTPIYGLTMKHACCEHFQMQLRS
Particulars: cited from earlier work.

The target in series [4] is T3, P450 1A2 (Homo sapiens, UniProt P05177).
T3 sequence (P05177 1-516): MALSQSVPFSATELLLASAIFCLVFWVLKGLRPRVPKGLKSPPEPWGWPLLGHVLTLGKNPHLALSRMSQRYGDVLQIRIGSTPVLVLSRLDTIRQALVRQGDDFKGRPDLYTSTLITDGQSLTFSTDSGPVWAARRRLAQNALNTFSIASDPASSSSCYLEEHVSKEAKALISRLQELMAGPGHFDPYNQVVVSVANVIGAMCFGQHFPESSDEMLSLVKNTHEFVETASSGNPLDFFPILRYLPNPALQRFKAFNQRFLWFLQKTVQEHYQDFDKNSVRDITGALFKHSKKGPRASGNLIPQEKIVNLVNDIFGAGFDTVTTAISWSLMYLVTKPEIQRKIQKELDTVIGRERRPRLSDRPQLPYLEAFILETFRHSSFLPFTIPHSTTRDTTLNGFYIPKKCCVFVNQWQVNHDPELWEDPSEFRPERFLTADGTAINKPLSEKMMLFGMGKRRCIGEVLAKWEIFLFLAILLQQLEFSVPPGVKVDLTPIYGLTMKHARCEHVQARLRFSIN
The experiment in a line: Quenching of inhibitor-derived fluorescence with P450 1A2. Particulars: enzyme and inhibitor 10 nM; 25 °C.

For series [5], the target named is T1, P450 1B1. The experiment in a line: Quenching of PAH. The following applies: for half-maximal time (t1/2) to decrease B[a]P emission: 10 nM P450 1B1, 25 °C.
Series [6] deals with T1, P450 1B1. The series is described as follows: Quenching of P450 1B1. The class given is binding. The following applies: extrapolated % quenching; 1.0 μM P450 1B1.
Series [7] has as its target T1, P450 1B1. The experiment in a line: Spectral binding titrations with purified P450 1B1. The following applies: for wavelengths (peak/trough): pH 7.4.
Series [8] deals with T2, P450 1A1. The series is described as follows: Quenching of inhibitor-derived fluorescence with P450 1A1. Particulars: enzyme and inhibitor 10 nM; 25 °C.
Series [9] concerns the target T1, P450 1B1. Particulars: cited from earlier work.
The target of series [10] is T2, P450 1A1. The series is described as follows: Quenching of P450 fluorescence with inhibitors, P450 1A1. The class given is binding.
Series [11] addresses T2, P450 1A1. The series is described as follows: Inhibition of P450 1A1-dependent EROD activity. The following applies: for fold increase in EROD Km of P450 1A1: 1PP 66 nM, 3PPh 333 nM; for mechanism of inhibition of P450 1A1 EROD activity: 37 °C, 30 min. The class given is biochemical.
For series [12], the target named is T3, P450 1A2. The experiment in a line: Quenching of P450 fluorescence with inhibitors, P450 1A2. The class given is binding.
For series [13], the target named is T3, P450 1A2. The series is described as follows: Inhibition of P450 1A2-dependent EROD activity. Particulars: 37 °C. The class given is biochemical.
Series [14] deals with T3, P450 1A2. The following applies: cited from earlier work.

We go through four compounds from article PMC2772130 (Chemical research in toxicology, 2008).

For orientation: IC50 means the point on the concentration scale where inhibition reaches its midpoint. Low values mean greater potency, high ones weaker potency. For orientation: Kd means the concentration at which binding is half-saturated. Higher therefore signals a looser complex. Consider `C#Cc1ccc2ccc3cccc4ccc1c2c34` [1EP, 1-ethynylpyrene], for which half-maximal inhibition on P450 1B1 [1] (IC50) was put at 31 ± 4 nM. For the same compound, the “ΔAmax / Ks” value on P450 1B1 [2] is recorded as 0.017. The “mechanism of inhibition of P450 1A1” value at P450 1A1 [3] is reported as “mechanism-based manner”. The “interaction with P450 1A2 (fluorescence quenching)” value on P450 1A2 [4] is “No interactions”. In addition, the Kd on P450 1B1 [5] is 1.9 to 18 nM; on P450 1B1 [7], 2900 ± 1000 nM. Moreover, the “PAH binding to P450 1B1 Bmax” value at P450 1B1 [6] was 74 ± 1%. At P450 1B1 [7] (1 μM P450 1B1), the “wavelengths (peak/trough)” value is 416/383. The “fluorescence quenching with P450 1A1” value at P450 1A1 [8] is reported as “to a lesser extent with P450 1A1 than 1B1”. Moreover, at P450 1B1 [9], the “mechanism of inhibition of P450 1B1” value was “direct inhibitors”.
Consider `CC#Cc1ccc2ccc3cccc4ccc1c2c34` [1PP, 1-(1-propynyl)pyrene], for which the Kd at P450 1A1 [10] was roughly 10 µM; at P450 1A2 [12], roughly 10 µM; at P450 1B1 [5], 1.9 to 18 nM; on P450 1B1 [7], 2700 ± 400 nM. The “EROD kcat of P450 1B1 relative to controls” value at P450 1B1 [1] (3PPh 33 nM) was 44%. Also, on P450 1B1 [1] (3PPh 33 nM), the “fold increase in EROD Km of P450 1B1” value was found to be 6.8 fold. On P450 1B1 [1], this compound registered an IC50 of 22 ± 3 nM. Besides, the “EROD kcat of P450 1B1 relative to control, first decrease” value at P450 1B1 [1] was “~ one-fifth”. Also, the “fold increase in EROD Km of P450 1A1” value on P450 1A1 [11] (at 360 s) is 10 fold; on P450 1A1 [11] (initial incubation time), ~ 8 fold. On P450 1A1 [11], the “mechanism of inhibition of P450 1A1 EROD activity” value is given as “mechanism-based inhibitors”. The “ΔAmax / Ks” value at P450 1B1 [2] was 0.016. The “mechanism of inhibition of P450 1A1” value at P450 1A1 [3] is “mechanism-based manner”. The “PAH binding to P450 1B1 Bmax” value on P450 1B1 [6] is 69 ± 1%. The “wavelengths (peak/trough)” value at P450 1B1 [7] (1 μM P450 1B1) was 416/383. The “mechanism of inhibition of P450 1A2 EROD activity” value on P450 1A2 [13] is listed as “mechanism-based manner”. Moreover, at P450 1B1 [9], the “mechanism of inhibition of P450 1B1” value was “direct inhibitors”.
Turning to `CC#Cc1ccc2ccc3ccccc3c2c1` [3PPh, 3-(1-propynyl)phenanthrene], at P450 1B1 [1] (3PPh 33 nM), the “EROD kcat of P450 1B1 relative to controls” value came out at 56% and the “fold increase in EROD Km of P450 1B1” value amounted to 2.3 fold. Further, the “EROD Km of P450 1B1 relative to control value” on P450 1B1 [1] (3PPh 33 nM, 6 min of incubation) was “one-third”. At P450 1B1 [1], 40 ± 3 nM corresponded to half-maximal inhibition (IC50) and the “EROD kcat of P450 1B1 relative to control, first decrease” value is “~ one-fifth”. For the same compound, the “fold increase in EROD Km of P450 1A1” value at P450 1A1 [11] (at 360 s) is on record as 25 fold. Also, at P450 1A1 [11] (initial incubation time), the “fold increase in EROD Km of P450 1A1” value is given as ~ 8 fold. The “mechanism of inhibition of P450 1A1 EROD activity” value on P450 1A1 [11] is reported as “mechanism-based inhibitors”. The “ΔAmax / Ks” value at P450 1B1 [2] turned out to be 0.019. The “PAH binding to P450 1B1 Bmax” value at P450 1B1 [6] is 73 ± 5%. This compound yielded a Kd on P450 1B1 [7] of 3100 ± 400 nM. Further, the “ΔAmax (ΔA~416-A~383)” value at P450 1B1 [7] (1 μM P450 1B1, means ± S.E.) came to 0.060 ± 0.004. Besides, the “wavelengths (peak/trough)” value on P450 1B1 [7] (1 μM P450 1B1) was 415/383. Moreover, at P450 1A2 [13], the “mechanism of inhibition of P450 1A2 EROD activity” value is on record as “mechanism-based manner”.
`c1ccc2c(c1)cc1ccc3cccc4ccc2c1c34` [B[a]P, benzo[a]pyrene]: the Kd at P450 1A1 [10] was roughly 10 µM; on P450 1A2 [12] it was roughly 10 µM; on P450 1B1 [5], 11 nM. The midpoint of inhibition against P450 1B1 [1], the IC50, lay at 31 ± 4 nM. The “mechanism of inhibition of P450 1A2” value at P450 1A2 [14] was “mechanism-based manner”. Also, the “half-maximal time (t1/2) to decrease B[a]P emission” value at P450 1B1 [5] (2.5 nM B[a]P) amounted to 33 s; on P450 1B1 [5] (5 nM B[a]P), 15 s; on P450 1B1 [5] (10 nM B[a]P), 7.5 s. Besides, on P450 1A2 [13], the “mechanism of inhibition of P450 1A2 EROD activity” value was “directly inhibited by low concentration of B[a]P, but the inhibition was increased with time at higher B[a]P concentrations”.
